Results reported in BindingDB's records for doi:10.1016/j.ejmech.2013.06.030 (National Institute On Drug Abuse and The National Institute …, 2013).

Molecular target: Delta-type opioid receptor (Homo sapiens, UniProt P41143)
Experiment: Displacement of [3H]DADLE from human delta opioid receptor expressed in CHO cells after 2 hrs by liquid scintillation counting

Chain of Delta-type opioid receptor (P41143 whole entry): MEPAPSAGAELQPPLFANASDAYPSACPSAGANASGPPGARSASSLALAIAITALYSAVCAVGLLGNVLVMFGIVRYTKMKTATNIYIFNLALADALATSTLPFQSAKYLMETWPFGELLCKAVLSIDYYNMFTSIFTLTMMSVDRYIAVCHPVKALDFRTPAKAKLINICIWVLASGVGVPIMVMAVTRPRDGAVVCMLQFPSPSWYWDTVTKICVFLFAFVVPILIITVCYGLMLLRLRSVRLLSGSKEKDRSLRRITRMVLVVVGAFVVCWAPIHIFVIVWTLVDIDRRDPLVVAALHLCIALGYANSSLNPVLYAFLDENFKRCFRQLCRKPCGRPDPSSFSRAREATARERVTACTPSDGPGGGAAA

| SMILES | Ki [nM] |
| --- | --- |
| C[C@H]1C[C@H]2C[C@](c3cccc(O)c3)(CCN2C)C1 | 721 |
| CN1CC[C@]2(c3cccc(O)c3)C[C@@H](c3ccccc3)C[C@H]1C2 | 583 |
| C[C@H]1CC[C@@]2(c3cccc(O)c3)CCN(C)[C@@H]1C2 | 139 |
| Oc1cccc([C@@]23CCN(CCc4ccccc4)[C@H](C[C@@H](O)C2)C3)c1 | 876 |
| C[C@H]1CC[C@@]2(c3cccc(O)c3)CCN(CCc3ccccc3)[C@@H]1C2 | 126 |
| Oc1cccc([C@]23CCN(CCc4ccccc4)[C@H](C2)[C@H]2CCCC[C@@H]2C3)c1 | 103 |
| Oc1cccc([C@@]23CCN(CCc4ccccc4)[C@@H](C[C@H](c4ccccc4)C2)C3)c1 | 318 |
| C[C@H]1C[C@H]2C[C@](c3cccc(O)c3)(CCN2CCc2ccccc2)C1 | 260 |
